# Results reported in US20230398130A1, “METHODS AND COMPOSITIONS FOR DIFFERENTIATING STEM CELLS” (Massachusetts Institute of Technology, priority 2020, published 2023).
# Key:
# ISC-enriched organoids [1] = assay: Primary screen, 384-well 2.5-D organoid differentiation (ENR+CD, 6 days): basal lysozyme secretion (LYZ.NS); type: cell-based, murine; conditions: for Dose.FC.LYZ.NS / Z.LYZ.NS / SSMD.LYZ.NS: primary screen; for Dose.FC.LYZ.NS: FC vs plate median; for Z.LYZ.NS: standard z score; for SSMD.LYZ.NS: strictly standardized mean difference; for Dose.FC.LYZ.NS (log 2 fold change, basal lysozyme secretion): vs plate median
# Source text: (§1) High-throughput screening.
# ISC-enriched organoids [2] = assay: Primary screen, 384-well 2.5-D organoid differentiation (ENR+CD, 6 days): carbachol-induced lysozyme secretion (LYZ.S); type: cell-based, murine; conditions: for Dose.FC.LYZ.S / Z.LYZ.S / SSMD.LYZ.S: primary screen; for Dose.FC.LYZ.S: FC vs plate median; for Z.LYZ.S: standard z score; for SSMD.LYZ.S: strictly standardized mean difference; for Dose.FC.LYZ.S (log 2 fold change, carbachol-induced lysozyme secretion): vs plate median
# Source text: as §1
# ISC-enriched organoids [3] = assay: Primary screen, 384-well 2.5-D organoid differentiation (ENR+CD, 6 days, Target Selective Inhibitor Library, vs whole-plate median): ATP (CellTiter-Glo 3D, CTG); conditions: for Dose.FC.CTG / Z.CTG / SSMD.CTG: primary screen; for Dose.FC.CTG: FC vs plate median; for Z.CTG: standard z score; for SSMD.CTG: strictly standardized mean difference; for Dose.FC.CTG (log 2 fold change, ATP): vs plate median
# [4] = 1st of the 4 dose lines of the treatment (dose not given)
# [5] = 2nd of the 4 dose lines of the treatment (dose not given)
# [6] = 3rd of the 4 dose lines of the treatment (dose not given)
# [7] = 4th of the 4 dose lines of the treatment (dose not given)
compound,measurement,setting,value
Cc1cc(Nc2cc(CN3CCOCC3)c3nc(C)c(Cc4ccc(Cl)cc4F)n3n2)n[nH]1 [LY2784544],Dose.FC.LYZ.NS,ISC-enriched organoids [1]; Dose 0.08 uM,0.132 log 2 fold change
same,Z.LYZ.NS,ISC-enriched organoids [1]; Dose 0.08 uM,1.152
same,Dose.FC.LYZ.NS,ISC-enriched organoids [1]; Dose 0.40 uM,0.004 log 2 fold change
same,Z.LYZ.NS,ISC-enriched organoids [1]; Dose 0.40 uM,0.033
same,Dose.FC.LYZ.NS,ISC-enriched organoids [1]; Dose 2.00 uM,0.068 log 2 fold change
same,Z.LYZ.NS,ISC-enriched organoids [1]; Dose 2.00 uM,0.591
same,Dose.FC.LYZ.NS,ISC-enriched organoids [1]; Dose 10.00 uM,−0.280 log 2 fold change
same,Z.LYZ.NS,ISC-enriched organoids [1]; Dose 10.00 uM,−2.439
same,SSMD.LYZ.NS,ISC-enriched organoids [1]; [4],0.395
same,SSMD.LYZ.NS,ISC-enriched organoids [1]; [5],0.037
same,SSMD.LYZ.NS,ISC-enriched organoids [1]; [6],0.582
same,SSMD.LYZ.NS,ISC-enriched organoids [1]; [7],−2.015
same,Dose.FC.LYZ.S,ISC-enriched organoids [2]; Dose 0.08 uM,0.123 log 2 fold change
same,Dose.FC.LYZ.S,ISC-enriched organoids [2]; Dose 0.40 uM,0.077 log 2 fold change
same,Dose.FC.LYZ.S,ISC-enriched organoids [2]; Dose 2.00 uM,0.114 log 2 fold change
same,Dose.FC.LYZ.S,ISC-enriched organoids [2]; Dose 10.00 uM,−0.367 log 2 fold change
same,Z.LYZ.S,ISC-enriched organoids [2]; [4],0.794
same,Z.LYZ.S,ISC-enriched organoids [2]; [5],0.498
same,Z.LYZ.S,ISC-enriched organoids [2]; [6],0.737
same,Z.LYZ.S,ISC-enriched organoids [2]; [7],−2.373
same,SSMD.LYZ.S,ISC-enriched organoids [2]; [4],0.911
same,SSMD.LYZ.S,ISC-enriched organoids [2]; [5],0.595
same,SSMD.LYZ.S,ISC-enriched organoids [2]; [6],0.492
same,SSMD.LYZ.S,ISC-enriched organoids [2]; [7],−2.074
same,Dose.FC.CTG,ISC-enriched organoids [3]; Dose 0.08 uM,0.108 log 2 fold change
same,Z.CTG,ISC-enriched organoids [3]; Dose 0.08 uM,0.259
same,Dose.FC.CTG,ISC-enriched organoids [3]; Dose 0.40 uM,0.062 log 2 fold change
same,Z.CTG,ISC-enriched organoids [3]; Dose 0.40 uM,0.148
same,Dose.FC.CTG,ISC-enriched organoids [3]; Dose 2.00 uM,0.181 log 2 fold change
same,Z.CTG,ISC-enriched organoids [3]; Dose 2.00 uM,0.433
same,Dose.FC.CTG,ISC-enriched organoids [3]; Dose 10.00 uM,−0.831 log 2 fold change
same,Z.CTG,ISC-enriched organoids [3]; Dose 10.00 uM,−1.984
same,SSMD.CTG,ISC-enriched organoids [3]; [4],0.378
same,SSMD.CTG,ISC-enriched organoids [3]; [5],0.135
same,SSMD.CTG,ISC-enriched organoids [3]; [6],0.500
same,SSMD.CTG,ISC-enriched organoids [3]; [7],−1.283
C[C@H](NC(=O)Cc1cc(F)cc(F)c1)C(=O)N[C@@H]1C(=O)N(C)c2ccccc2-c2ccccc21 [YO-01027],Z.LYZ.NS (standard z score),ISC-enriched organoids [1]; dose 0.08 uM,0.443
same,"Dose.FC.LYZ.NS (log 2 fold change, basal lysozyme secretion)",ISC-enriched organoids [1]; dose 0.08 uM,0.051
same,Z.LYZ.NS (standard z score),ISC-enriched organoids [1]; dose 0.40 uM,0.739
same,"Dose.FC.LYZ.NS (log 2 fold change, basal lysozyme secretion)",ISC-enriched organoids [1]; dose 0.40 uM,0.085
same,Z.LYZ.NS (standard z score),ISC-enriched organoids [1]; dose 2.00 uM,−0.699
same,"Dose.FC.LYZ.NS (log 2 fold change, basal lysozyme secretion)",ISC-enriched organoids [1]; dose 2.00 uM,−0.080
same,Z.LYZ.NS (standard z score),ISC-enriched organoids [1]; dose 10.00 uM,−1.369
same,"Dose.FC.LYZ.NS (log 2 fold change, basal lysozyme secretion)",ISC-enriched organoids [1]; dose 10.00 uM,−0.157
same,"Dose.FC.LYZ.S (log 2 fold change, carbachol-induced lysozyme secretion)",ISC-enriched organoids [2]; dose 0.08 uM,0.105
same,"Dose.FC.LYZ.S (log 2 fold change, carbachol-induced lysozyme secretion)",ISC-enriched organoids [2]; dose 0.40 uM,−0.058
same,"Dose.FC.LYZ.S (log 2 fold change, carbachol-induced lysozyme secretion)",ISC-enriched organoids [2]; dose 2.00 uM,−0.020
same,"Dose.FC.LYZ.S (log 2 fold change, carbachol-induced lysozyme secretion)",ISC-enriched organoids [2]; dose 10.00 uM,−0.184
same,Z.CTG (standard z score),ISC-enriched organoids [3]; dose 0.08 uM,0.528
same,"Dose.FC.CTG (log 2 fold change, ATP)",ISC-enriched organoids [3]; dose 0.08 uM,0.221
same,Z.CTG (standard z score),ISC-enriched organoids [3]; dose 0.40 uM,−1.135
same,"Dose.FC.CTG (log 2 fold change, ATP)",ISC-enriched organoids [3]; dose 0.40 uM,−0.475
same,Z.CTG (standard z score),ISC-enriched organoids [3]; dose 2.00 uM,−1.363
same,"Dose.FC.CTG (log 2 fold change, ATP)",ISC-enriched organoids [3]; dose 2.00 uM,−0.571
same,Z.CTG (standard z score),ISC-enriched organoids [3]; dose 10.00 uM,−2.464
same,"Dose.FC.CTG (log 2 fold change, ATP)",ISC-enriched organoids [3]; dose 10.00 uM,−1.032
Nc1cccc(-c2cc3c(Oc4cccc(O)c4)ncnc3[nH]2)c1 [TWS119],Z.LYZ.NS (standard z score),ISC-enriched organoids [1]; dose 0.08 uM,0.820
same,"Dose.FC.LYZ.NS (log 2 fold change, basal lysozyme secretion)",ISC-enriched organoids [1]; dose 0.08 uM,0.094
same,Z.LYZ.NS (standard z score),ISC-enriched organoids [1]; dose 0.40 uM,0.327
same,"Dose.FC.LYZ.NS (log 2 fold change, basal lysozyme secretion)",ISC-enriched organoids [1]; dose 0.40 uM,0.038
same,Z.LYZ.NS (standard z score),ISC-enriched organoids [1]; dose 2.00 uM,0.304
same,"Dose.FC.LYZ.NS (log 2 fold change, basal lysozyme secretion)",ISC-enriched organoids [1]; dose 2.00 uM,0.035
same,Z.LYZ.NS (standard z score),ISC-enriched organoids [1]; dose 10.00 uM,−2.027
same,"Dose.FC.LYZ.NS (log 2 fold change, basal lysozyme secretion)",ISC-enriched organoids [1]; dose 10.00 uM,−0.233
same,"Dose.FC.LYZ.S (log 2 fold change, carbachol-induced lysozyme secretion)",ISC-enriched organoids [2]; dose 0.08 uM,0.207
same,"Dose.FC.LYZ.S (log 2 fold change, carbachol-induced lysozyme secretion)",ISC-enriched organoids [2]; dose 0.40 uM,0.142
same,"Dose.FC.LYZ.S (log 2 fold change, carbachol-induced lysozyme secretion)",ISC-enriched organoids [2]; dose 2.00 uM,0.044
same,"Dose.FC.LYZ.S (log 2 fold change, carbachol-induced lysozyme secretion)",ISC-enriched organoids [2]; dose 10.00 uM,−0.283
same,Z.CTG (standard z score),ISC-enriched organoids [3]; dose 0.08 uM,0.784
same,"Dose.FC.CTG (log 2 fold change, ATP)",ISC-enriched organoids [3]; dose 0.08 uM,0.328
same,Z.CTG (standard z score),ISC-enriched organoids [3]; dose 0.40 uM,0.796
same,"Dose.FC.CTG (log 2 fold change, ATP)",ISC-enriched organoids [3]; dose 0.40 uM,0.333
same,Z.CTG (standard z score),ISC-enriched organoids [3]; dose 2.00 uM,0.169
same,"Dose.FC.CTG (log 2 fold change, ATP)",ISC-enriched organoids [3]; dose 2.00 uM,0.071
same,Z.CTG (standard z score),ISC-enriched organoids [3]; dose 10.00 uM,−2.866
same,"Dose.FC.CTG (log 2 fold change, ATP)",ISC-enriched organoids [3]; dose 10.00 uM,−1.200
